According to ChEMBL document CHEMBL1133593 (J Med Chem, 2000):

Target: Phosphoglycerate kinase (Trypanosoma brucei)
Test: evaluated for the inhibition of Trypanosoma brucei Phosphoglycerate kinase (PGK)

| IC50 [µM] | SMILES |
| --- | --- |
| 3000 | CCCCCNc1ncnc2c1ncn2[C@@H]1O[C@H](CO)[C@@H](O)[C@H]1O |
| 3000 | CCCNc1nc(N)nc2c1ncn2C1O[C@H](CO)[C@@H](O)[C@H]1O (stereo partly specified) |
| 2500 | Nc1nc(NCC2CCCCC2)c2ncn(C3O[C@H](CO)[C@@H](O)[C@H]3O)c2n1 (stereo partly specified) |
| 3500 | CC(CNc1nc(N)c2ncn(C3O[C@H](CO)[C@@H](O)[C@H]3O)c2n1)c1ccccc1 (stereo partly specified) |
| 250 | Nc1nc(NCCc2cccc(O)c2)c2ncn(C3O[C@H](CO)[C@@H](O)[C@H]3O)c2n1 (stereo partly specified) |
| 500 | Nc1nc(NCCc2ccc(O)cc2)nc2c1ncn2C1O[C@H](CO)[C@@H](O)[C@H]1O (stereo partly specified) |
| 100 | OC[C@H]1OC(n2cnc3c(NCCc4ccccc4)nc(NCCc4ccc(O)cc4)nc32)[C@H](O)[C@@H]1O (stereo partly specified) |
| 2000 | CCCCCNc1nc(N)nc2c1ncn2C1O[C@H](CO)[C@@H](O)[C@H]1O (stereo partly specified) |
| 900 | CCCCNc1nc(N)nc2c1ncn2C1O[C@H](CO)[C@@H](O)[C@H]1O (stereo partly specified) |
| 1400 | Nc1nc(NCc2ccc(Cl)cc2)nc2c1ncn2C1O[C@H](CO)[C@@H](O)[C@H]1O (stereo partly specified) |
| 1500 | Nc1nc(NCc2ccco2)c2ncn(C3O[C@H](CO)[C@@H](O)[C@H]3O)c2n1 (stereo partly specified) |
| 50 | Nc1nc(NCCCNc2nc(N)nc3c2ncn3C2O[C@H](CO)[C@@H](O)[C@H]2O)c2ncn(C3O[C@@H](CO)[C@H](O)[C@@H]3O)c2n1 (stereo partly specified) |
| 400 | Cc1cccc(CNc2nc(N)nc3c2ncn3C2O[C@H](CO)[C@@H](O)[C@H]2O)c1 (stereo partly specified) |
| 1000 | COc1ccc(CNc2nc(N)c3ncn(C4O[C@H](CO)[C@@H](O)[C@H]4O)c3n2)cc1 (stereo partly specified) |
| 1500 | Nc1nc(NC2CCCC2)c2ncn(C3O[C@H](CO)[C@@H](O)[C@H]3O)c2n1 (stereo partly specified) |
| 2900 | CC(CNc1nc(N)nc2c1ncn2C1O[C@H](CO)[C@@H](O)[C@H]1O)c1ccccc1 (stereo partly specified) |
| 1800 | Nc1nc(NCCCc2ccccc2)nc2c1ncn2C1O[C@H](CO)[C@@H](O)[C@H]1O (stereo partly specified) |
| 1500 | COc1ccc(CCNc2nc(N)nc3c2ncn3C2O[C@H](CO)[C@@H](O)[C@H]2O)cc1 (stereo partly specified) |
| 250 | Nc1nc(NCCc2ccc(O)c(O)c2)c2ncn(C3O[C@H](CO)[C@@H](O)[C@H]3O)c2n1 (stereo partly specified) |
| 850 | COc1ccc(CCNc2nc(N)nc3c2ncn3C2O[C@H](CO)[C@@H](O)[C@H]2O)cc1O (stereo partly specified) |
| 3500 | CCNc1nc(N)nc2c1ncn2C1O[C@H](CO)[C@@H](O)[C@H]1O (stereo partly specified) |

| IC50 [µM] | SMILES |
| --- | --- |
| 1900 | COc1cccc(CCNc2nc(N)nc3c2ncn3C2O[C@H](CO)[C@@H](O)[C@H]2O)c1 (stereo partly specified) |
| 30 | OC[C@H]1OC(n2cnc3c(NCCc4ccccc4)nc(NCCc4ccccc4)nc32)[C@H](O)[C@@H]1O (stereo partly specified) |
| 2000 | Cc1ccc(CCNc2nc(N)nc3c2ncn3C2O[C@H](CO)[C@@H](O)[C@H]2O)cc1 (stereo partly specified) |
| 3000 | C=CCNc1nc(N)nc2c1ncn2C1O[C@H](CO)[C@@H](O)[C@H]1O (stereo partly specified) |
| 1500 | COc1cc(CCNc2nc(N)nc3c2ncn3C2O[C@H](CO)[C@@H](O)[C@H]2O)ccc1O (stereo partly specified) |
| 1900 | Nc1nc(NCc2cccc3ccccc23)c2ncn(C3O[C@H](CO)[C@@H](O)[C@H]3O)c2n1 (stereo partly specified) |
| 1200 | Nc1nc(NCCc2cccc(Cl)c2)c2ncn(C3O[C@H](CO)[C@@H](O)[C@H]3O)c2n1 (stereo partly specified) |
| 100 | OC[C@H]1OC(n2cnc3c(NCCc4ccc(O)cc4)nc(NCCc4ccccc4)nc32)[C@H](O)[C@@H]1O (stereo partly specified) |
| 130 | Nc1nc(NCCc2ccc(O)cc2)c2ncn(C3O[C@H](CO)[C@@H](O)[C@H]3O)c2n1 (stereo partly specified) |
| 1400 | COc1ccccc1CNc1nc(N)c2ncn(C3O[C@H](CO)[C@@H](O)[C@H]3O)c2n1 (stereo partly specified) |
| 1900 | Nc1nc(NCCc2ccccc2Cl)c2ncn(C3O[C@H](CO)[C@@H](O)[C@H]3O)c2n1 (stereo partly specified) |
| 1500 | CCCNc1nc(N)c2ncn([C@@H]3O[C@H](CO)[C@@H](O)[C@H]3O)c2n1 |
| 2500 | Nc1nc(NC2CCCCCC2)c2ncn(C3O[C@H](CO)[C@@H](O)[C@H]3O)c2n1 (stereo partly specified) |
| 1500 | Cc1ccccc1CNc1nc(N)c2ncn(C3O[C@H](CO)[C@@H](O)[C@H]3O)c2n1 (stereo partly specified) |
| 4000 | Nc1nc(NCCCc2ccccc2)c2ncn(C3O[C@H](CO)[C@@H](O)[C@H]3O)c2n1 (stereo partly specified) |
| 1500 | Cc1ccc(CNc2nc(N)c3ncn(C4O[C@H](CO)[C@@H](O)[C@H]4O)c3n2)cc1 (stereo partly specified) |
| 500 | Nc1ccc(CCNc2nc(N)c3ncn(C4O[C@H](CO)[C@@H](O)[C@H]4O)c3n2)cc1 (stereo partly specified) |
| 500 | Nc1nc(NCCNc2nc(N)nc3c2ncn3C2O[C@H](CO)[C@@H](O)[C@H]2O)c2ncn(C3O[C@@H](CO)[C@H](O)[C@@H]3O)c2n1 (stereo partly specified) |
| 4000 | NCCCNc1nc(N)nc2c1ncn2C1O[C@H](CO)[C@@H](O)[C@H]1O (stereo partly specified) |
| 1500 | CCCCNc1nc(N)c2ncn(C3O[C@H](CO)[C@@H](O)[C@H]3O)c2n1 (stereo partly specified) |
| 750 | Nc1nc(NCCCCNc2nc(N)nc3c2ncn3C2O[C@H](CO)[C@@H](O)[C@H]2O)c2ncn(C3O[C@@H](CO)[C@H](O)[C@@H]3O)c2n1 (stereo partly specified) |

| IC50 [µM] | SMILES |
| --- | --- |
| 1500 | Cc1cccc(CNc2nc(N)c3ncn(C4O[C@H](CO)[C@@H](O)[C@H]4O)c3n2)c1 (stereo partly specified) |
| 800 | Nc1nc(NCC2CCCO2)nc2c1ncn2C1O[C@H](CO)[C@@H](O)[C@H]1O (stereo partly specified) |
| 1400 | Nc1nc(NCC(O)c2ccccc2)nc2c1ncn2[C@@H]1O[C@H](CO)[C@@H](O)[C@H]1O (stereo partly specified) |
| 200 | Nc1nc(NCCc2ccccc2)c2ncn(C3O[C@H](CO)[C@@H](O)[C@H]3O)c2n1 (stereo partly specified) |
| 2000 | Nc1nc(NCc2ccccc2Cl)nc2c1ncn2C1O[C@H](CO)[C@@H](O)[C@H]1O (stereo partly specified) |
| 2500 | NCCNc1ncnc2c1ncn2C1O[C@H](CO)[C@@H](O)[C@H]1O (stereo partly specified) |
| 3500 | Nc1nc(NCc2ccccc2)nc2c1ncn2C1O[C@H](CO)[C@@H](O)[C@H]1O (stereo partly specified) |
| 2900 | CC(Nc1nc(N)nc2c1ncn2C1O[C@H](CO)[C@@H](O)[C@H]1O)c1ccccc1 (stereo partly specified) |
| 1500 | C#CCNc1nc(N)nc2c1ncn2C1O[C@H](CO)[C@@H](O)[C@H]1O (stereo partly specified) |
| 1400 | Nc1nc(NCCc2ccc(Cl)cc2)c2ncn(C3O[C@H](CO)[C@@H](O)[C@H]3O)c2n1 (stereo partly specified) |
| 2200 | Nc1nc(NCCc2ccccc2Cl)nc2c1ncn2C1O[C@H](CO)[C@@H](O)[C@H]1O (stereo partly specified) |
| 3000 | Nc1nc(NC2CCCCCC2)nc2c1ncn2C1O[C@H](CO)[C@@H](O)[C@H]1O (stereo partly specified) |
| 600 | Nc1nc(NCc2ccccc2)c2ncn(C3O[C@H](CO)[C@@H](O)[C@H]3O)c2n1 (stereo partly specified) |
| 800 | Nc1nc(NCc2cccc(Cl)c2)nc2c1ncn2C1O[C@H](CO)[C@@H](O)[C@H]1O (stereo partly specified) |
| 1800 | COc1ccccc1CCNc1nc(N)nc2c1ncn2C1O[C@H](CO)[C@@H](O)[C@H]1O (stereo partly specified) |
| 1200 | Nc1nc(NCc2ccco2)nc2c1ncn2C1O[C@H](CO)[C@@H](O)[C@H]1O (stereo partly specified) |
| 250 | Nc1ccc(CCNc2nc(N)nc3c2ncn3C2O[C@H](CO)[C@@H](O)[C@H]2O)cc1 (stereo partly specified) |
| 600 | Nc1nc(NCCc2ccc(Cl)cc2Cl)nc2c1ncn2C1O[C@H](CO)[C@@H](O)[C@H]1O (stereo partly specified) |
| 1000 | Nc1nc(NCCCCCNc2nc(N)nc3c2ncn3C2O[C@H](CO)[C@@H](O)[C@H]2O)c2ncn(C3O[C@@H](CO)[C@H](O)[C@@H]3O)c2n1 (stereo partly specified) |
